{
  "source": "paper PMC10135964",
  "about": "“One Scaffold, Two Conformations: The Ring-Flip of the Messenger InsP8 Occurs under Cytosolic Conditions” (Biomolecules, 2023)",
  "key": {"[1]": {"experiment": "Van't Hoff thermodynamic analysis of InsP8 conformational equilibrium", "assay_type": "physicochemical", "conditions": "10 mM NaCl; for ΔH^0 of eq. to ax. conformational transition / ΔS^0 of eq. to ax. conformational transition: 50 µM InsP8, pH* 7.5, 130 mM KCl", "procedure": "BIRD-HMQC NMR spectra were recorded as described above, at 274–283 K in 1 K steps, two replicate samples per condition. Instrument temperature was calibrated against d4-methanol according to Findeisen et al..\nSamples contained 50 µM InsP8, 5 mM HEPES pH* 7.5 (pH set on ice), 130 mM KCl, 10 mM NaCl, and either 100 µM or 250 µM MgCl2. Acquisition parameters were SW(^13C): 62–82 ppm, NS: 2048, TD(^13C): 16.\nThe best-isolated peaks (the 2-peak of ax. and 1-peak of eq. conformer) were integrated, subtracting 1PP-InsP5 impurities. The ax./eq. ratio (i.e., equilibrium constant K for the eq. to ax. transition) was plotted against 1/T, where T is temperature in Kelvin.\nΔH^0 and ΔS^0 were calculated from the regression line. Two replicates were combined for the linear regression."}, "[2]": {"experiment": "1H,13C BIRD-HMQC NMR quantification of axial vs. equatorial conformer", "assay_type": "physicochemical", "conditions": "50 µM, 130 mM KCl, 10 mM NaCl, 4 °C", "procedure": "Samples for HMQC-NMR studies contained 50 µM ^13C6-labeled InsPs (InsP6/5PP-InsP5/InsP8), 2 mM bis-tris-propane, 130 mM KCl, 10 mM NaCl and 0/50/250 µM MgCl2 in D2O.\nBIRD-HMQC NMR spectra were recorded at 277 K and 600 MHz (^1H frequency) on a Bruker AV-III NMR spectrometer (Bruker Biospin, Rheinstetten, Germany) using cryogenically cooled 5 mm QCI-triple resonance probe equipped with one-axis self-shielded gradients. The spectrometer was operated using topspin 3.5 pl6 software. Instrument temperature was calibrated against […] according to Findeisen et al.. Acquisition parameters were SW(^13C): 60–90 ppm, NS: 128, TD(^13C): 64.\nBIRD-HMQC spectra were recorded at 277 K as described above, with samples containing 200 µM InsPs, 130 mM KCl, 10 mM NaCl, 2mM BTP in D2O. pH was set to pH* 9.5 for InsP6, pH* 8.8 for 5PP-InsP5 and pH* 8.5 for InsP8 (pH = 0.929 × pH* + 0.42 [35]). NOESY-HMQC spectra of the same samples were subsequently recorded using mixing times of 80 ms for InsP6 and 5PP-InsP5 and 200 ms for InsP8. Conformational exchange on the time-scale of the experiment created cross-peaks between corresponding peaks in different conformations, which allowed us to assign each peak of the equatorial conformer to its axial counterpart."}, "[3]": {"experiment": "1H,13C BIRD-HMQC NMR quantification of axial vs. equatorial conformer", "assay_type": "physicochemical", "conditions": "pH* 7.5, 5 equiv. Ca2+, 130 mM KCl, 10 mM NaCl"}, "[4]": {"system": "VTC complex", "design": "method as in PMID 28186404", "conditions": "in vitro, VTC complex from budding yeast S. cerevisiae; cited from earlier work"}, "[5]": {"experiment": "31P-NMR titrations of InsP8 (protonation, K+ and Mg2+ complex formation constants, HypNMR)", "assay_type": "physicochemical", "conditions": "for pH of the conformational change: 1 mM InsP8, 22 °C", "procedure": "In order to create a system free of coordinating counterions, a batch of InsP8 was synthesized as described above, by enzymatic phosphorylation of 5PP-InsP5 and precipitation with Mg^2+, followed by Mg^2+ chelation on Amberlite® cation exchange resin. Unlike in the standard procedure, the resin was loaded with NMe4Cl instead of NH4CO3, resulting in a batch of InsP8 with non-coordinating NMe4^+ counterions. 1 mM EDTA was added to all ^31P-NMR titrations to chelate remaining traces of Mg^2+.\nNMR-samples contained 1 mM InsP8, 1 mM EDTA, pH 3.0–12.5 (in H2O, steps of 0.5 pH units) and a) for the non-coordinating condition: 150 mM NMe4Cl or b) 150 mM KCl or c) 150 mM KCl and 1 mM MgCl2. Sealed glass capillaries containing 50 mM phosphonoacetic acid in D2O were added into the sample tubes for locking and chemical shift calibration.\n^31P-NMR spectra were recorded at 295 K on a Bruker spectrometer (see above) operating at 600 MHz for protons and 244 MHz for phosphorous nuclei. SW: −40 ppm to −20 ppm, NS: 1024. Spectra at pH 3.0 were assigned by various 2D-NMR methods (Figure S5) and chemical shift changes were tracked across the pH range.\nThe data were analyzed using the HypNMR 2006 software (Hyperquad Limited, Lincoln, UK). Different possible stoichiometries were tested, and the final chemical models were selected on the basis of the σ parameter (scaled sum of square differences between predicted and experimental chemical shift values), the model confidence level estimator (chi square), and the internal consistency of data reflected in standard deviations of the formation constants. Species distribution diagrams were produced using the HySS program (Hyperquad Limited, Lincoln, UK)."}},
  "note": "Entries after “also recorded” stand apart in the source; their conditions may differ.",
  "data": [
    {"smiles": "O=P(O)(O)O[C@@H]1[C@@H](OP(=O)(O)O)[C@H](OP(=O)(O)OP(=O)(O)O)[C@@H](OP(=O)(O)O)[C@H](OP(=O)(O)OP(=O)(O)O)[C@@H]1OP(=O)(O)O", "note": "[InsP8, 1,5(PP)2-InsP4]", "values": [
      {"measurement": "ΔH^0 of eq. to ax. conformational transition", "setting": "[1]; 2 equiv. MgCl2, 274–283 K", "value": "-17.1 ± 2.1", "unit": "kcal/mol"},
      {"measurement": "ΔS^0 of eq. to ax. conformational transition", "setting": "[1]; 2 equiv. MgCl2, 274–283 K", "value": "−0.063 ± 0.008 kcal/(mol·K)"},
      {"measurement": "ΔH^0 of eq. to ax. conformational transition", "setting": "[1]; 5 equiv. MgCl2, 274–283 K", "value": "-7.2 ± 1.9", "unit": "kcal/mol"},
      {"measurement": "ΔS^0 of eq. to ax. conformational transition", "setting": "[1]; 5 equiv. MgCl2, 274–283 K", "value": "−0.025 ± 0.007 kcal/(mol·K)"},
      {"measurement": "axial conformer estimated at 37 °C (Gibbs-Helmholtz equation)", "setting": "[1]; 2 equiv. Mg2+, pH* 7.5, 130 mM KCl", "value": "about 2%"},
      {"measurement": "axial conformer predicted at 37 °C (310 K)", "setting": "[1]; 5 equiv. Mg2+, pH* 7.5, 130 mM KCl", "value": 29, "unit": "%"},
      {"measurement": "proportion in axial conformation", "setting": "[2]; pH* 7.5 (=pH 7.4), 1 equiv. Mg2+", "value": "about 10%"},
      {"measurement": "proportion in axial conformation", "setting": "[2]; pH* 7.5, 5 equiv. Mg2+", "value": "about half; also recorded: almost equally distributed between its axial and equatorial forms"},
      {"measurement": "proportion in axial conformation", "setting": "[2]; pH* 8.5, without divalent cations", "value": "about half"},
      {"measurement": "proportion in axial conformation", "setting": "[3]", "value": "About 15%"},
      {"measurement": "effectiveness at activating polyphosphate synthesis by the VTC complex", "setting": "[4]", "value": "twenty-times more effective than 5PP-InsP5"},
      {"measurement": "pH of the conformational change", "setting": "[5]; 150 mM K+", "value": "8.5–9.0"},
      {"measurement": "pH of the transition to the equatorial conformation", "setting": "[5]; 150 mM KCl and 1 mM MgCl2, 1 mM InsP8, 22 °C", "value": "~8.5"},
      {"measurement": "log K, 2 K^+ + H5L^9− ↔ [K2(H5L)]^7−", "setting": "[5]; 31P NMR, 22 °C, I = 0.15 M", "value": "3.820(7)"},
      {"measurement": "log K, 3 K^+ + H4L^10− ↔ [K3(H4L)]^7−", "setting": "[5]; 31P NMR, 22 °C, I = 0.15 M", "value": "5.446(5)"},
      {"measurement": "log K, 4 K^+ + H2L^12− ↔ [K4(H2L)]^8−", "setting": "[5]; 31P NMR, 22 °C, I = 0.15 M", "value": "9.76(3)"},
      {"measurement": "log K, 5 K^+ + HL^13− ↔ [K5(HL)]^8−", "setting": "[5]; 31P NMR, 22 °C, I = 0.15 M", "value": "12.47(3)"},
      {"measurement": "log K, K^+ + H6L^8− ↔ [K(H6L)]^7−", "setting": "[5]; 31P NMR, 22 °C, I = 0.15 M", "value": "2.58(5)"},
      {"measurement": "log K, K^+ + H7L^7− ↔ [K(H7L)]^6−", "setting": "[5]; 31P NMR, 22 °C, I = 0.15 M", "value": "2.08(3)"},
      {"measurement": "log K, L^14− + 2 H^+ ↔ H2L^12−", "setting": "[5]; 31P NMR, 22 °C, I = 0.15 M", "value": "22.78(2)"},
      {"measurement": "log K, L^14− + 3 H^+ ↔ H3L^11−", "setting": "[5]; 31P NMR, 22 °C, I = 0.15 M", "value": "34.22(2)"},
      {"measurement": "log K, L^14− + 4 H^+ ↔ H4L^10−", "setting": "[5]; 31P NMR, 22 °C, I = 0.15 M", "value": "43.96(2)"},
      {"measurement": "log K, L^14− + 5 H^+ ↔ H5L^9−", "setting": "[5]; 31P NMR, 22 °C, I = 0.15 M", "value": "52.58(3)"},
      {"measurement": "log K, L^14− + 6 H^+ ↔ H6L^8−", "setting": "[5]; 31P NMR, 22 °C, I = 0.15 M", "value": "59.41(8)"},
      {"measurement": "log K, L^14− + 7 H^+ ↔ H7L^7−", "setting": "[5]; 31P NMR, 22 °C, I = 0.15 M", "value": "64.91(6)"},
      {"measurement": "log K, L^14− + 8 H^+ ↔ H8L^6−", "setting": "[5]; 31P NMR, 22 °C, I = 0.15 M", "value": "68.79(7)"},
      {"measurement": "log K, L^14− + H^+ ↔ HL^13−", "setting": "[5]; 31P NMR, 22 °C, I = 0.15 M", "value": "11.21(1)"},
      {"measurement": "log K, Mg^2+ + H2L^12− + 3 K^+ ↔ [MgK3(H2L)]^7−", "setting": "[5]; 31P NMR, 22 °C, I = 0.15 M", "value": "18.1(1)"},
      {"measurement": "log K, Mg^2+ + H4L^10− + 2 K^+ ↔ [MgK2(H4L)]^6−", "setting": "[5]; 31P NMR, 22 °C, I = 0.15 M", "value": "11.6(1)"},
      {"measurement": "log K, Mg^2+ + H5L^9− + K^+ ↔ [MgK(H5L)]^6−", "setting": "[5]; 31P NMR, 22 °C, I = 0.15 M", "value": "9.1(1)"},
      {"measurement": "log K, Mg^2+ + H6L^8− + K^+ ↔ [MgK(H6L)]^5−", "setting": "[5]; 31P NMR, 22 °C, I = 0.15 M", "value": "7.3(1)"},
      {"measurement": "log K, Mg^2+ + HL^13− + 4 K^+ ↔ [MgK4(HL)]^7−", "setting": "[5]; 31P NMR, 22 °C, I = 0.15 M", "value": "21.6(1)"},
      {"measurement": "log K, Mg^2+ + L^14− + 4 K^+ ↔ [MgK4L]^8−", "setting": "[5]; 31P NMR, 22 °C, I = 0.15 M", "value": "22.4(1)"},
      {"measurement": "negative charges carried", "setting": "[5]; pH 7.4", "value": "10–11"},
      {"measurement": "most abundant species", "setting": "[5]; physiological pH range, 150 mM KCl and 1 mM MgCl2, 22 °C", "value": "[MgK3(H3L)]^6−"},
      {"measurement": "pH of the conformational change", "setting": "[5]; without coordinating cations (150 mM NMe4Cl)", "value": "~11"}
    ]}
  ]
}
